Experiments:
PIK3CD (Human) = PIK3CD (Human) (UniProt O00329); test: Assessment of PIK3CD Kinase Activity
PIK3CA (human) = PIK3CA (human) (UniProt P42336); test: Assessment of PIK3CA Kinase Activity
PIK3CB (Human) = PIK3CB (Human) (UniProt P42338); test: Assessment of PIK3CB Kinase Activity
Chain of PIK3CB (Human) (P42338 whole entry, looked up): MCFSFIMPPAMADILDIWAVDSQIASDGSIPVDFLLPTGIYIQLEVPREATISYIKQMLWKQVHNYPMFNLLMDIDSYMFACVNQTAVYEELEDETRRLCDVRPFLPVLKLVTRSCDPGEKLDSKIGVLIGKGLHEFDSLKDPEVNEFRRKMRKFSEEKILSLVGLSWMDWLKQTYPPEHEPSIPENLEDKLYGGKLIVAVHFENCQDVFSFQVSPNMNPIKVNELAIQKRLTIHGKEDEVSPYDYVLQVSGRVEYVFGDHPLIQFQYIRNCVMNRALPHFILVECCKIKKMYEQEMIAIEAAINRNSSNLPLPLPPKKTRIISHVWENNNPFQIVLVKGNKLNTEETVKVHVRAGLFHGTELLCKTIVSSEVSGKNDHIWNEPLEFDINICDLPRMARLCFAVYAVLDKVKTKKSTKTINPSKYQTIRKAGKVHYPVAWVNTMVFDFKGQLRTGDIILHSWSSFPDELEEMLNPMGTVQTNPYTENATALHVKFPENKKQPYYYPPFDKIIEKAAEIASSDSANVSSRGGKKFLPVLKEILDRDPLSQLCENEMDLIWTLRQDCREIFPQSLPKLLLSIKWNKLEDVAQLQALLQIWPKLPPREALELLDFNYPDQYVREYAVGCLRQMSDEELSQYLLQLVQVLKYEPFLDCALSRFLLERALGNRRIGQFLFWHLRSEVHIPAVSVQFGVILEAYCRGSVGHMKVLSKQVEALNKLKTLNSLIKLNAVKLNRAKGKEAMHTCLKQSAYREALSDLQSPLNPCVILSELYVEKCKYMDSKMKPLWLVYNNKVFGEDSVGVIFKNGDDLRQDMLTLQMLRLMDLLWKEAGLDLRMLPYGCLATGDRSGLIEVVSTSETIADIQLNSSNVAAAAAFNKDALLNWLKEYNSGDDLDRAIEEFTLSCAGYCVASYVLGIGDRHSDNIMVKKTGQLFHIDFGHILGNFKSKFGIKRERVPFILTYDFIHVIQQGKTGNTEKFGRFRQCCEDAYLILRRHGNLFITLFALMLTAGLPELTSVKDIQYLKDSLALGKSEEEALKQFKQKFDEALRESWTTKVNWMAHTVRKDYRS

Chain of PIK3CA (human) (P42336 whole entry, looked up): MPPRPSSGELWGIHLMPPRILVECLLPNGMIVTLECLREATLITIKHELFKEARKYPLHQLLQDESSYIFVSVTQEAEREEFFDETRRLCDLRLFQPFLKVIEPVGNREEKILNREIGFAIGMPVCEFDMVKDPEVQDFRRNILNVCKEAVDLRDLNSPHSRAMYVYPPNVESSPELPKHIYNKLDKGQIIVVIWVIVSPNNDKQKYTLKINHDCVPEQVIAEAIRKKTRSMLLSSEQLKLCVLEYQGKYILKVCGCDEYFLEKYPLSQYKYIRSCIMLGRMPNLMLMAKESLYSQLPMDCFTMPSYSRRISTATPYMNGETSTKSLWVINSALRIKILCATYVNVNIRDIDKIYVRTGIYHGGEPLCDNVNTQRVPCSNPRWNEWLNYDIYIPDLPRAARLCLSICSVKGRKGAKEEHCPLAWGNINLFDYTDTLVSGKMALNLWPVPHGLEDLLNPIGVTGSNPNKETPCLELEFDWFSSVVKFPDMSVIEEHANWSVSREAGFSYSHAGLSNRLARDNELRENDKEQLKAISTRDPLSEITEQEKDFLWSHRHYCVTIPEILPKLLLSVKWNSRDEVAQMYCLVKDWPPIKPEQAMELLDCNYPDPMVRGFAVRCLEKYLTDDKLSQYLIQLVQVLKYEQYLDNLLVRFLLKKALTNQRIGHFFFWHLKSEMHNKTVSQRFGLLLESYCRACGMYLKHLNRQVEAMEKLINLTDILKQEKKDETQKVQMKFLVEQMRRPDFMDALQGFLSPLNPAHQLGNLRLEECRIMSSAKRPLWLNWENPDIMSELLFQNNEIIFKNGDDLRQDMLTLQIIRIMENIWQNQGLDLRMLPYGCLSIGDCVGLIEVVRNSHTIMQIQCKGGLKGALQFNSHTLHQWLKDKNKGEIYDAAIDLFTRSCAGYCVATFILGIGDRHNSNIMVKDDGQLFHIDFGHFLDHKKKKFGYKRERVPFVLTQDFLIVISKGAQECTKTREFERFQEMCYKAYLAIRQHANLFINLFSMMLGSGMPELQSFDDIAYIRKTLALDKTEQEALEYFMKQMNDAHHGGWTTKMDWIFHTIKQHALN
Chain of PIK3CD (Human) (O00329 whole entry, looked up): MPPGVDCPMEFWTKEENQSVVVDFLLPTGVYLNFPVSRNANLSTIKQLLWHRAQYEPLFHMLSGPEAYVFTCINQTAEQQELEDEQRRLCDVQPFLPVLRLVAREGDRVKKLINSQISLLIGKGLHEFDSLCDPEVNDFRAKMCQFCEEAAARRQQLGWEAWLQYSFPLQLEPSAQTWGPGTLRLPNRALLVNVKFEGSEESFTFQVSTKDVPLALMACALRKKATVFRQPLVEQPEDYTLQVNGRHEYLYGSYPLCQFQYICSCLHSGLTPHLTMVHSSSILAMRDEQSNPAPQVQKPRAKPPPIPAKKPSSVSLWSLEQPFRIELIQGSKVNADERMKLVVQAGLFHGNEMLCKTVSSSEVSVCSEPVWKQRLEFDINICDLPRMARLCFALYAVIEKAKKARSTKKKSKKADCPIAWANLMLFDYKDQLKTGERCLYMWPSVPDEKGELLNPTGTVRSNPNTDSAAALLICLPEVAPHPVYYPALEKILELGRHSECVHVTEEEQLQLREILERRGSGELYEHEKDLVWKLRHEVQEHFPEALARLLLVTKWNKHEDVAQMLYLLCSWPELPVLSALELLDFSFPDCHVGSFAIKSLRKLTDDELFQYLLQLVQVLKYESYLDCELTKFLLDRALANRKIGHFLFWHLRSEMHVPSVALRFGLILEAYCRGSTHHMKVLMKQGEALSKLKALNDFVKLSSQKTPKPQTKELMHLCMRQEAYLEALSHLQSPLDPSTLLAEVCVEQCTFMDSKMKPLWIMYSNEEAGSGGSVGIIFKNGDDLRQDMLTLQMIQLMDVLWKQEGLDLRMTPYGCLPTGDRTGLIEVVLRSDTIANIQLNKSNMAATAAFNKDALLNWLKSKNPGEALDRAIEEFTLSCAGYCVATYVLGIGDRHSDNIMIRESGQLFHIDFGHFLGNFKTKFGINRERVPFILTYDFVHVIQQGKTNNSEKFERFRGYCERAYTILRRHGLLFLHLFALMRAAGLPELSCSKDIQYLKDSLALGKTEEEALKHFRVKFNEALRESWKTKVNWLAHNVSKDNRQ

## FC(F)c1nc2ccccc2n1-c1nc(Nc2cnccn2)nc(N2CCOCC2)n1
PIK3CD (Human)
  IC50: < 0.1 µM
PIK3CA (human)
  IC50: < 0.1 µM

## COc1cccc2c1nc(C(F)F)n2-c1nc(Nc2ccc(F)nc2)nc(N2CCOCC2)n1
PIK3CB (Human)
  IC50: 0.1 to 1 µM
PIK3CD (Human)
  IC50: < 0.1 µM
PIK3CA (human)
  IC50: < 0.1 µM

## COc1cccc2c1nc(C(F)F)n2-c1nc(Nc2cnc(N(C)CCN(C)C)nc2)nc(N2CCOCC2)n1
PIK3CD (Human)
  IC50: < 0.1 µM
PIK3CA (human)
  IC50: < 0.1 µM

## COc1cccc2c1nc(C(F)F)n2-c1nc(N2CCOCC2)c2ncn(-c3cncnc3)c2n1
PIK3CD (Human)
  IC50: < 0.1 µM
PIK3CA (human)
  IC50: < 0.1 µM

## FC(F)c1nc2ccccc2n1-c1nc(Nc2ccccc2)nc(N2CCOCC2)n1
PIK3CB (Human)
  IC50: 0.1 to 1 µM
PIK3CD (Human)
  IC50: < 0.1 µM
PIK3CA (human)
  IC50: 0.1 to 1 µM

## FC(F)c1nc2ccccc2n1-c1nc(Nc2ccncn2)nc(N2CCOCC2)n1
PIK3CD (Human)
  IC50: < 0.1 µM
PIK3CA (human)
  IC50: < 0.1 µM

## FC(F)c1nc2ccccc2n1-c1nc(-c2cccnc2)nc(N2CCOCC2)n1
PIK3CB (Human)
  IC50: 0.1 to 1 µM
PIK3CD (Human)
  IC50: < 0.1 µM
PIK3CA (human)
  IC50: < 0.1 µM

## COc1ncc(-c2cc(N3CCOCC3)nc(-n3c(C(F)F)nc4c(OC)cccc43)n2)cn1
PIK3CD (Human)
  IC50: 0.1 to 1 µM
PIK3CA (human)
  IC50: < 0.1 µM

## FC(F)c1nc2ccccc2n1-c1nc(Nc2cncnc2)nc(N2CCOCC2)n1
PIK3CB (Human)
  IC50: 0.1 to 1 µM
PIK3CD (Human)
  IC50: < 0.1 µM
PIK3CA (human)
  IC50: < 0.1 µM

## FC(F)c1nc2ccccc2n1-c1nc(Oc2cccnc2)nc(N2CCOCC2)n1
PIK3CA (human)
  IC50: 0.1 to 1 µM

## COc1cccc2c1nc(C(F)F)n2-c1nc(N2CCOCC2)nc(N(C)c2cccnc2)n1
PIK3CB (Human)
  IC50: < 0.1 µM
PIK3CD (Human)
  IC50: < 0.1 µM
PIK3CA (human)
  IC50: < 0.1 µM

## FC(F)c1nc2ccccc2n1-c1nc(Nc2cccnn2)nc(N2CCOCC2)n1
PIK3CB (Human)
  IC50: 0.1 to 1 µM
PIK3CD (Human)
  IC50: < 0.1 µM
PIK3CA (human)
  IC50: < 0.1 µM

## COc1ncc(Nc2nc(N3CCOCC3)nc(-n3c(C(F)F)nc4c(OC)cccc43)n2)cn1
PIK3CB (Human)
  IC50: 0.1 to 1 µM
PIK3CD (Human)
  IC50: < 0.1 µM
PIK3CA (human)
  IC50: < 0.1 µM

## COc1cccc2c1nc(C(F)F)n2-c1nc(Nc2cnc(N(C)CCCN(C)C)nc2)nc(N2CCOCC2)n1
PIK3CD (Human)
  IC50: < 0.1 µM
PIK3CA (human)
  IC50: < 0.1 µM

## FC(F)c1nc2ccccc2n1-c1nc(Oc2ccccc2)nc(N2CCOCC2)n1
PIK3CB (Human)
  IC50: > 10 µM
PIK3CA (human)
  IC50: > 10 µM

## FC(F)c1nc2ccccc2n1-c1nc(Nc2ncccn2)nc(N2CCOCC2)n1
PIK3CA (human)
  IC50: 0.1 to 1 µM

## FC(F)c1nc2ccccc2n1-c1nc(Nc2ccncc2)nc(N2CCOCC2)n1
PIK3CB (Human)
  IC50: 0.1 to 1 µM
PIK3CD (Human)
  IC50: < 0.1 µM
PIK3CA (human)
  IC50: < 0.1 µM

## COc1ccc(Nc2nc(N3CCOCC3)nc(-n3c(C(F)F)nc4c(OC)cccc43)n2)cn1
PIK3CB (Human)
  IC50: < 0.1 µM
PIK3CD (Human)
  IC50: < 0.1 µM
PIK3CA (human)
  IC50: < 0.1 µM

## COc1cccc2c1nc(C(F)F)n2-c1nc(-c2ccc(N)nc2)nc(N2CCOCC2)n1
PIK3CD (Human)
  IC50: < 0.1 µM
PIK3CA (human)
  IC50: < 0.1 µM

## COc1ccncc1Nc1nc(N2CCOCC2)nc(-n2c(C(F)F)nc3c(OC)cccc32)n1
PIK3CB (Human)
  IC50: 0.1 to 1 µM
PIK3CD (Human)
  IC50: < 0.1 µM
PIK3CA (human)
  IC50: < 0.1 µM

## COc1cccc2c1nc(C(F)F)n2-c1nc(Nc2ccncn2)nc(N2CCOCC2)n1
PIK3CB (Human)
  IC50: 0.1 to 1 µM
PIK3CD (Human)
  IC50: < 0.1 µM
PIK3CA (human)
  IC50: < 0.1 µM

## CS(=O)(=O)c1nc2ccccc2n1-c1nc(Nc2cccnc2)nc(N2CCOCC2)n1
PIK3CB (Human)
  IC50: 0.1 to 1 µM
PIK3CD (Human)
  IC50: < 0.1 µM
PIK3CA (human)
  IC50: 0.1 to 1 µM

## FC(F)c1nc2ccccc2n1-c1nc(Nc2ccccn2)nc(N2CCOCC2)n1
PIK3CD (Human)
  IC50: < 0.1 µM
PIK3CA (human)
  IC50: < 0.1 µM

## COc1cccc2c1nc(C(F)F)n2-c1nc(Nc2cncnc2)nc(N2CCOCC2)n1
PIK3CB (Human)
  IC50: 0.1 to 1 µM
PIK3CD (Human)
  IC50: < 0.1 µM
PIK3CA (human)
  IC50: < 0.1 µM

## FC(F)c1nc2ccccc2n1-c1nc(-c2cccnc2)cc(N2CCOCC2)n1
PIK3CD (Human)
  IC50: 0.1 to 1 µM
PIK3CA (human)
  IC50: 0.1 to 1 µM

## COc1cccc2c1nc(C(F)F)n2-c1nc(Nc2ccc(N(C)C)nc2)nc(N2CCOCC2)n1
PIK3CB (Human)
  IC50: 0.1 to 1 µM
PIK3CD (Human)
  IC50: < 0.1 µM
PIK3CA (human)
  IC50: < 0.1 µM

## COc1cccc2c1nc(C(F)F)n2-c1nc(Nc2cccnc2)nc(N2CCOCC2)n1
PIK3CB (Human)
  IC50: 0.1 to 1 µM
PIK3CD (Human)
  IC50: < 0.1 µM
PIK3CA (human)
  IC50: < 0.1 µM

## COc1cccc2c1nc(C(F)F)n2-c1nc(N2CCOCC2)nc(N(C)c2cncnc2)n1
PIK3CD (Human)
  IC50: < 0.1 µM
PIK3CA (human)
  IC50: < 0.1 µM

## FC(F)c1nc2ccccc2n1-c1nc(-c2cncnc2)cc(N2CCOCC2)n1
PIK3CD (Human)
  IC50: 0.1 to 1 µM
PIK3CA (human)
  IC50: 0.1 to 1 µM

## COc1cccc2c1nc(C(F)F)n2-c1nc(-c2cccnc2)nc(N2CCOCC2)n1
PIK3CD (Human)
  IC50: < 0.1 µM
PIK3CA (human)
  IC50: < 0.1 µM

## COc1cccc2c1nc(C(F)F)n2-c1nc(-c2cccnc2)cc(N2CCOCC2)n1
PIK3CD (Human)
  IC50: < 0.1 µM
PIK3CA (human)
  IC50: < 0.1 µM

## CNc1ccc(Nc2nc(N3CCOCC3)nc(-n3c(C(F)F)nc4c(OC)cccc43)n2)cn1
PIK3CB (Human)
  IC50: 0.1 to 1 µM
PIK3CD (Human)
  IC50: < 0.1 µM
PIK3CA (human)
  IC50: < 0.1 µM

## FC(F)c1nc2ccccc2n1-c1nc(NCc2cccnc2)nc(N2CCOCC2)n1
PIK3CB (Human)
  IC50: 0.1 to 1 µM
PIK3CD (Human)
  IC50: < 0.1 µM
PIK3CA (human)
  IC50: 0.1 to 1 µM

## FC(F)c1nc2ccccc2n1-c1nc(Sc2ccccc2)nc(N2CCOCC2)n1
PIK3CB (Human)
  IC50: > 10 µM
PIK3CA (human)
  IC50: > 10 µM

## FC(F)c1nc2ccccc2n1-c1nc(NCc2ccncc2)nc(N2CCOCC2)n1
PIK3CA (human)
  IC50: 0.1 to 1 µM

## CSc1nc2ccccc2n1-c1nc(Nc2cccnc2)nc(N2CCOCC2)n1
PIK3CD (Human)
  IC50: 0.1 to 1 µM

## COc1cccc2c1nc(C(F)F)n2-c1nc(Nc2cnc(Cl)nc2)nc(N2CCOCC2)n1
PIK3CD (Human)
  IC50: < 0.1 µM
PIK3CA (human)
  IC50: < 0.1 µM

## COc1ccc(Nc2nc(N3CCOCC3)nc(-n3c(C(F)F)nc4c(OC)cccc43)n2)nn1
PIK3CB (Human)
  IC50: 0.1 to 1 µM
PIK3CD (Human)
  IC50: < 0.1 µM
PIK3CA (human)
  IC50: < 0.1 µM

## Cn1cc(Nc2nc(N3CCOCC3)nc(-n3c(C(F)F)nc4ccccc43)n2)cn1
PIK3CB (Human)
  IC50: 0.1 to 1 µM
PIK3CD (Human)
  IC50: < 0.1 µM
PIK3CA (human)
  IC50: < 0.1 µM

## COc1cc(Nc2nc(N3CCOCC3)nc(-n3c(C(F)F)nc4c(OC)cccc43)n2)ncn1
PIK3CB (Human)
  IC50: 0.1 to 1 µM
PIK3CD (Human)
  IC50: < 0.1 µM
PIK3CA (human)
  IC50: < 0.1 µM

## COc1cc(N)cc2c1nc(C(F)F)n2-c1nc(-c2cn[nH]c2)nc(N2CCOCC2)n1
PIK3CD (Human)
  IC50: < 0.1 µM
PIK3CA (human)
  IC50: < 0.1 µM

## COc1ccncc1Nc1nc(N2CCOCC2)nc(-n2c(C(F)F)nc3ccccc32)n1
PIK3CB (Human)
  IC50: 0.1 to 1 µM
PIK3CD (Human)
  IC50: < 0.1 µM
PIK3CA (human)
  IC50: < 0.1 µM

## COc1cccc2c1nc(C(F)F)n2-c1nc(Nc2ccc(N)nc2)nc(N2CCOCC2)n1
PIK3CB (Human)
  IC50: 0.1 to 1 µM
PIK3CD (Human)
  IC50: < 0.1 µM
PIK3CA (human)
  IC50: < 0.1 µM

## COc1cccc2c1nc(C(F)F)n2-c1nc(Nc2cccnn2)nc(N2CCOCC2)n1
PIK3CB (Human)
  IC50: 0.1 to 1 µM
PIK3CD (Human)
  IC50: < 0.1 µM
PIK3CA (human)
  IC50: < 0.1 µM

## FC(F)c1nc2ccccc2n1-c1nc(NCc2ccccc2)nc(N2CCOCC2)n1
PIK3CB (Human)
  IC50: < 0.1 µM
PIK3CD (Human)
  IC50: < 0.1 µM
PIK3CA (human)
  IC50: 0.1 to 1 µM

## COc1cccc2c1nc(C(F)F)n2-c1nc(-c2cncnc2)cc(N2CCOCC2)n1
PIK3CD (Human)
  IC50: 0.1 to 1 µM
PIK3CA (human)
  IC50: < 0.1 µM

## CN(c1cncnc1)c1nc(N2CCOCC2)nc(-n2c(C(F)F)nc3ccccc32)n1
PIK3CD (Human)
  IC50: < 0.1 µM
PIK3CA (human)
  IC50: < 0.1 µM

## FC(F)c1nc2ccccc2n1-c1nc(Nc2cnc3ccccc3c2)nc(N2CCOCC2)n1
PIK3CD (Human)
  IC50: 0.1 to 1 µM
PIK3CA (human)
  IC50: 0.1 to 1 µM

## COc1cc(N)cc2c1nc(C(F)F)n2-c1nc(-c2ccn(C)n2)nc(N2CCOCC2)n1
PIK3CD (Human)
  IC50: < 0.1 µM
PIK3CA (human)
  IC50: < 0.1 µM

## COc1cccc2c1nc(C(F)F)n2-c1nc(Nc2ccc(Cl)nc2)nc(N2CCOCC2)n1
PIK3CB (Human)
  IC50: 0.1 to 1 µM
PIK3CD (Human)
  IC50: < 0.1 µM
PIK3CA (human)
  IC50: < 0.1 µM

## COc1cc(N)cc2c1nc(C(F)F)n2-c1nc(N2CCOCC2)nc(-n2cccn2)n1
PIK3CD (Human)
  IC50: < 0.1 µM
PIK3CA (human)
  IC50: < 0.1 µM

## FC(F)c1nc2ccccc2n1-c1nc(NCc2ccccn2)nc(N2CCOCC2)n1
PIK3CB (Human)
  IC50: < 0.1 µM
PIK3CD (Human)
  IC50: < 0.1 µM
PIK3CA (human)
  IC50: < 0.1 µM

## FC(F)c1nc2ccccc2n1-c1nc(Nc2cccnc2)nc(N2CCOCC2)n1
PIK3CB (Human)
  IC50: < 0.1 µM
PIK3CD (Human)
  IC50: < 0.1 µM
PIK3CA (human)
  IC50: < 0.1 µM

## CN(Cc1ccccc1)c1nc(N2CCOCC2)nc(-n2c(C(F)F)nc3ccccc32)n1
PIK3CB (Human)
  IC50: 0.1 to 1 µM
PIK3CD (Human)
  IC50: < 0.1 µM

## CN(c1ccccc1)c1nc(N2CCOCC2)nc(-n2c(C(F)F)nc3ccccc32)n1
PIK3CB (Human)
  IC50: 0.1 to 1 µM
PIK3CD (Human)
  IC50: 0.1 to 1 µM
PIK3CA (human)
  IC50: 0.1 to 1 µM

## COc1cccc2c1nc(C(F)F)n2-c1nc(N2CCOCC2)nc(-n2cccn2)n1
PIK3CD (Human)
  IC50: < 0.1 µM
PIK3CA (human)
  IC50: < 0.1 µM

## COc1cc(N)cc2c1nc(C(F)F)n2-c1nc(-c2cccnc2)cc(N2CCOCC2)n1
PIK3CD (Human)
  IC50: < 0.1 µM
PIK3CA (human)
  IC50: < 0.1 µM

From the Kinase Knowledgebase extract (Sharma et al. 2016)
